Measurements reported in publication PMC8589628, “Characterization and Antimicrobial Studies of Iturin-Like and Bogorol-Like Lipopeptides From Brevibacillus spp. Strains GI9 and SKDU10” (Frontiers in Microbiology, 2021).
Peptide text beside a SMILES is read from it. * marks the point of attachment. X1 = CC(C)CCCCCCCCCCCCC(=O)*

Tests used:
C. inconspicua MTCC 1074 = assay: MIC, microtiter plate dilution assay; assay type: cell-based; conditions: YMB, 5 × 10^5 CFU/ml, 37°C, OD 600 nm after 48 h
Protocol: (§1) The antimicrobial activity of HPLC purified compounds was determined against various test strains including S. aureus MTCC 1430, Vibrio cholera MTCC 3904, Bacillus subtilis MTCC 121, Listeria monocytogenes MTCC 839, C. albicans MTCC 183, C. albicans MTCC 1637, C. albicans MTCC 227, C. tropicalis MTCC 184, C. glabrata MTCC 3019, and C. inconspicua MTCC 1074. Antimicrobial activity was also tested against clinical Candida strains and phytopathogenic fungi viz. Fusarium moniliforme MTCC 158, Alternaria brassicicola MTCC 2102 and Colletotrichum acutatum MTCC 1037. Bacterial and Candida test strains were grown in NB and yeast malt broth (YMB), respectively. Fungal test strains were grown in potato dextrose broth (PDB). Minimum inhibitory concentrations (MICs) of purified compounds were evaluated against test organisms by using a microtiter plate dilution assay. Mid-log-phase test strains (5 × 10^5 CFU/ml) were incubated in a 96-well plate with different concentrations of the lipopeptides for 24–48 h at 37°C (final volume of 200 μl). OD was measured at 600 nm after 24 and 48 h for bacteria and yeast, respectively, using an ELISA microplate reader (Thermo Scientific, United States). MIC against phytopathogenic fungi was determined using the 96-well microtiter plate method ([Sharma et al., 2020]).

C. krusei 440009 = assay: MIC, microtiter plate dilution assay, clinical strain; assay type: cell-based; conditions: YMB, 37°C, OD 600 nm after 48 h
Protocol: (§2) Brevibacillus sp. strains GI-9 and SKDU10 were known to produce class IId bacteriocins identified as laterosporulins a ([Singh et al., 2012]; [Baindara et al., 2016]). Both strains were grown on nutrient agar (NA, Himedia, India). All test strains used in this study were obtained from Microbial Type Culture Collection and Gene bank (MTCC), Chandigarh, India. Clinical Candida strains were obtained from the National Culture Collection of Pathogenic Fungi (NCCPF), PGIMER, Chandigarh, India, and all strains were grown on recommended media.
as §1

C. rugosa 470141 = assay: as above; assay type: cell-based; conditions: YMB, 37°C, OD 600 nm after 48 h
Protocol: as §2, §1

C. acutatum MTCC1037 = assay: MIC against phytopathogenic fungi, 96-well microtiter plate method; assay type: cell-based, Colletotrichum acutatum; conditions: PDB
Protocol: as §1

[1] = test system: A. brassicicola MTCC 2102; assay: as above; assay type: cell-based, Alternaria brassicicola; conditions: PDB
Protocol: as §1

S. aureus MTCC 1430 = assay: TLC-bioautography assay; assay type: cell-based, Staphylococcus aureus; conditions: 10 μg/ml loaded on TLC silica gel; overlay on NA, 24 h at 37°C
Protocol: Overlay thin-layer chromatography (TLC)-bioautography assay was used to determine the antimicrobial activity of the purified antimicrobial compounds ([Wedge and Nagle, 2000]). For bioautography, the antimicrobial compounds (10 μg/ml) were loaded on TLC silica gel plates in duplicates and were developed in one dimension using a solvent system containing chloroform: […]: water (65:12:4 v/v). TLC plate was cut into two vertical parts after running. One part of the TLC was used for direct detection of antimicrobial activity by overlaying it on NA containing S. aureus MTCC 1430 (about 10^6 cells ml^–1). After 1 h diffusion at 4°C, the TLC silica plate was removed and the NA plate was incubated for 24 h at 37°C. Other part of the TLC was sprayed with phosphomolybdic acid as a staining reagent for lipids.

[2] = Collapse drop assay (CDA); assay type: physicochemical; conditions: 5 μl of 10 μg/ml stock on mineral oil droplet, observed after 1 min
Protocol: (§3) Collapse Drop Assay (CDA) was performed as mentioned earlier ([Sharma et al., 2020]). To a well of 96 well microtiter plate, 2 μl mineral oil was added and equilibrated at 37°C for 24 h. Purified lipopeptide (5 μl of 10 μg/ml stock) was applied to the top of oil droplet and its shape was observed after 1 min with a magnifying glass for collapse and spread due to reduction in surface tension. Water and triton X-100 served as controls ([Youssef et al., 2004]). To determine critical micelle concentration (CMC), different concentrations of purified lipopeptides were prepared and surface tension was measured on a tensiometer (KRUSS K10T, Germany) at room temperature. The values for CMC were estimated by plotting surface tension as a function of concentration of lipopeptides. A point of intersection was located between the pre and post CMC data plot. The mean value of triplicate experiments was used to increase the accuracy. Concentrations ranging from 0.1 to 1000 μg/ml were used to determine surface tension on a tensiometer.

[3] = Critical micelle concentration by tensiometer; assay type: physicochemical; conditions: surface tension by tensiometer at room temperature, 0.1 to 1000 μg/ml, mean of triplicate experiments
Protocol: as §3

V. cholerae MTCC 3904 = assay: Time kill assay; assay type: cell-based; conditions: in PBS, CFU count
Protocol: (§4) Killing kinetics of purified compounds was performed using cells of S. aureus MTCC 1430, V. cholerae MTCC 3904, and C. albicans MTCC 183. Test strains were grown to obtain OD between 0.2 and 0.3 (OD 600 nm), centrifuged, and washed thrice with sterile PBS. Pellets were suspended in PBS and treated with different concentrations of active compounds. Cells after treatment were washed, resuspended, and serially diluted cell suspensions were plated on NA plates. After overnight incubation at 37°C, CFU were recorded ([Singh et al., 2021]).

C. albicans MTCC 183 = assay: Time kill assay; assay type: cell-based, Candida albicans; conditions: for Time to complete killing: C. albicans MTCC 183, 5X MIC, in PBS, CFU count
Protocol: as §4

Lipase = assay: Effect of hydrolytic enzymes on activity (well-diffusion assay); assay type: in vitro ADME; conditions: 6h/ 37 °C
[4] = test system: A. brassicicola MTCC 2102; assay: Protection of tomato slices and grapes from fungal spores; design: species or system Alternaria brassicicola; conditions: 500 μl of 2 mg/ml lipopeptide, then 50 μl spore suspension (10^7 conidia per ml); 25°C, 4 days; three replicates
Protocol: The surface of the tomatoes and grapes was sterilized with 5% NaOCl for 5 min and rinsed three times with plenty of sterile water. After sterilization, tomatoes were cut into slices and wounds of 3 mm were inflicted with a sterile scalpel on the surface of the grapes. Tomato slices and grapes were divided into four groups. Contents of group 1 were treated with water only (negative control). Contents of group 2 were treated with 50 μl of a spore suspension (spores 10^7 conidia per ml) of A. brassicicola MTCC 2102 (positive control without treatment). Contents of group 3 were first treated with 500 μl of 2 mg/ml solution of purified lipopeptides separately and after adsorption of lipopeptides, fungal spores were added. Contents of the fourth group were treated with purified lipopeptides only without addition of fungal spores. Tomato slices and grapes from all four groups were incubated at 25°C under controlled humidity conditions for 4 days and observed. Each treatment was performed with three biological and technical replicates.

| Molecule | MIC value (C. inconspicua MTCC 1074) [µg/mL] | MIC value (C. krusei 440009) [µg/mL] | MIC value (C. rugosa 470141) [µg/mL] | MIC value (C. acutatum MTCC1037) [µg/mL] | MIC value [1] [µg/mL] | Inhibition of S. aureus MTCC 1430 in TLC-based bioautography (S. aureus MTCC 1430) | Collapse drop assay reaction [2] | CMC (critical micelle concentration) [3] [µg/mL] | Time to complete reduction in the load (V. cholerae MTCC 3904; V. cholerae MTCC 3904, 1X MIC) [min] | Time to complete reduction in the load (V. cholerae MTCC 3904; V. cholerae MTCC 3904, 2X MIC) [min] | Complete killing of cells within 4 h (C. albicans MTCC 183; C. albicans MTCC 183, 1X MIC) | Complete killing of cells within 4 h (C. albicans MTCC 183; C. albicans MTCC 183, 2X MIC) | Time to complete killing (C. albicans MTCC 183) [h] | Residual activity (Lipase) [%] | Fungal growth on the surface of treated tomato and grape slices inoculated with spores [4] | Reduction in growth (C. albicans MTCC 183; C. albicans MTCC 183, 1X MIC, 4 h) [log] |
| --- | --- | --- | --- | --- | --- | --- | --- | --- | --- | --- | --- | --- | --- | --- | --- | --- |
| Dhb-Tyr-Orn-Ile-Val-Val-Lys-Val-Leu-Asp-Val-Glu [BLL, bogorol like lipopeptide purified from Brevibacillus sp. strain SKDU10; 12 amino acids and C17 hydroxy fatty acid side chain] | 100 to 110 | 240 to 250 | 240 to 250 | 430 to 450 | 500 to 520 | active against S. aureus MTCC 1430 | positive reaction | 110 | ≤ 30 | ≤ 30 | not observed | not observed | ≤ 4 | 100 | no fungal growth | – |
| CC(C)CCCCCCCCCCCCC(=O)N[C@H](C(=O)NCC(=O)N[C@@H](C)C(=O)N[C@@H](CO)C(=O)N[C@@H](Cc1c[nH]cn1)C(=O)N[C@@H](CCC(N)=O)C(=O)N[C@@H](CCC(N)=O)C(=O)O)[C@@H](C)O [ILL] (X1-TGASHQQ-OH; N-terminus assumed) | – | – | – | – | – | inhibited S. aureus MTCC 1430 | positive reaction | 90 | ≤ 60 | ≤ 60 | – | – | 4 | 100 | no fungal growth | 2 |
